According to ChEMBL document CHEMBL1159156, “Design, synthesis and biological activity of some 4-DAMP- related compounds” (Bioorg Med Chem Lett, 1995):

Columns and labels:
[1] = target: Muscarinic acetylcholine receptor M2 (Cavia porcellus); assay: Evaluation of antagonistic affinity against muscarinic receptor (M2) in guinea pig left atria; conditions: read-out: pA2 (converted)
[2] = target: T1, Muscarinic acetylcholine receptor M2 (Rattus norvegicus, UniProt P10980); assay: Compound was tested for inhibiting [3H]N-Methyl-scopolamine Binding to Muscarinic receptor (M2) in Rat Heart
T1 sequence (P10980 whole entry): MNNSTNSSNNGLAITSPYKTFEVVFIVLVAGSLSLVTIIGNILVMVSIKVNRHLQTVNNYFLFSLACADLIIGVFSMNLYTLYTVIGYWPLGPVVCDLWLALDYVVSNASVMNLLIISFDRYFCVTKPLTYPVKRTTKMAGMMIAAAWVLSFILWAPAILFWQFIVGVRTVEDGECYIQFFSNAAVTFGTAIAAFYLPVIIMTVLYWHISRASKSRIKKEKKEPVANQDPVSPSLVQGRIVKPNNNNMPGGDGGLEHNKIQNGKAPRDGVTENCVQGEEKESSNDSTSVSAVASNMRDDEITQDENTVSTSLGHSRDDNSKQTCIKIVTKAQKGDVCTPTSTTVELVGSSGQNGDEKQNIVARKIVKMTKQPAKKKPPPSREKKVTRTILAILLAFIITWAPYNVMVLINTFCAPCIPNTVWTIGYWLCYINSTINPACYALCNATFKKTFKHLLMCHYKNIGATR

[3] = target: T2, Muscarinic acetylcholine receptor M1 (Rattus norvegicus, UniProt P08482); assay: Compound was tested for inhibiting [3H]pirenzepine Binding to Muscarinic receptor (M1) receptor in Rat Cortex Homogenates
T2 sequence (P08482 whole entry): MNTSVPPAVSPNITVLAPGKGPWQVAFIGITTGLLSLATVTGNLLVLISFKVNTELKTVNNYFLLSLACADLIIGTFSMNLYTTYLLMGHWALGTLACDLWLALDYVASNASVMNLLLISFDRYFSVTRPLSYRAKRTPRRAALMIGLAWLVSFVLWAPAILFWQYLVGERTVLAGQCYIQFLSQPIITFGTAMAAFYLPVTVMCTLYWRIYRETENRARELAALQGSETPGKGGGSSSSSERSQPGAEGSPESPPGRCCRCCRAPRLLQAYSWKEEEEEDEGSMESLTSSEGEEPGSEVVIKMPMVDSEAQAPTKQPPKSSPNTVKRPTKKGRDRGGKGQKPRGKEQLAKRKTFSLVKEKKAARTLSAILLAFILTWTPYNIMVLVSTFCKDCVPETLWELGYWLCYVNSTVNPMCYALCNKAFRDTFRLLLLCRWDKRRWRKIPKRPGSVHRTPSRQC

[4] = target: Muscarinic acetylcholine receptor M3 (Cavia porcellus, UniProt Q8VH26); assay: Evaluation of antagonistic affinity against muscarinic receptor (M3) in guinea pig ileum; type: functional, tissue-based; conditions: read-out: pA2 (converted)
Chain of Muscarinic acetylcholine receptor M3 (Cavia porcellus, UniProt Q8VH26) (Q8VH26 whole entry): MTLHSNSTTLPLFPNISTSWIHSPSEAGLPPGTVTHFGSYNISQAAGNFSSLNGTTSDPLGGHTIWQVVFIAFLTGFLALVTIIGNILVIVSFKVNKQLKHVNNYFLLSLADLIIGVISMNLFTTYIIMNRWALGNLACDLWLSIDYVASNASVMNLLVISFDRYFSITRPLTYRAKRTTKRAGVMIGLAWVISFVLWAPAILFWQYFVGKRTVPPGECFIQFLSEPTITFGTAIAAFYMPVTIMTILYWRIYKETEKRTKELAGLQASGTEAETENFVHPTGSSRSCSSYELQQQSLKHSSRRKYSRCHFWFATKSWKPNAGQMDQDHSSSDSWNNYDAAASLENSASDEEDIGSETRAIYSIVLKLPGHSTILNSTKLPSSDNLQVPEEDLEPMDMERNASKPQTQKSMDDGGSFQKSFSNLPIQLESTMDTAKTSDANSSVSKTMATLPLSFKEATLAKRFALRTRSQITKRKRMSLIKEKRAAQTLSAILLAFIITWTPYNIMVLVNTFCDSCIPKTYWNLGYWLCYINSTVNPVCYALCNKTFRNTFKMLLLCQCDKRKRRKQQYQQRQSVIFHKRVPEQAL

[5] = target: Muscarinic acetylcholine receptor M3 (Rattus norvegicus, UniProt P08483); assay: Compound was tested for inhibiting [3H]N-Methyl-scopolamine Binding to Muscarinic receptor (M3) in Rat Submaxillary Gland
Chain of Muscarinic acetylcholine receptor M3 (Rattus norvegicus, UniProt P08483) (P08483 whole entry): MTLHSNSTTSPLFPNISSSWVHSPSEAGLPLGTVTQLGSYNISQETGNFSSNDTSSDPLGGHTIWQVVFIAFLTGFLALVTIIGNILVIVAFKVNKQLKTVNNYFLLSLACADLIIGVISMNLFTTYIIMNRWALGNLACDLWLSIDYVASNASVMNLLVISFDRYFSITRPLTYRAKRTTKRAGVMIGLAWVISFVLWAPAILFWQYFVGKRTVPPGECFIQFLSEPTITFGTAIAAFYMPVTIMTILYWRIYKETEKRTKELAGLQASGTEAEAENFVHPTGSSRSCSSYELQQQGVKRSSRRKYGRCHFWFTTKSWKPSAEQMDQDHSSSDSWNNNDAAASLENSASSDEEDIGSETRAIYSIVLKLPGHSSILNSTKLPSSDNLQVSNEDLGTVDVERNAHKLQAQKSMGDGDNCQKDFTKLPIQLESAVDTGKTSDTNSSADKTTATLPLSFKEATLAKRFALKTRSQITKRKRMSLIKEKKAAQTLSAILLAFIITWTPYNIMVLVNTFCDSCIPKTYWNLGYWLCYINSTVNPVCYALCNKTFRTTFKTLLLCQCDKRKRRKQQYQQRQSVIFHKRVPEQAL

[6] = target: T3, Muscarinic acetylcholine receptor M4 (Homo sapiens, UniProt P08173); assay: Compound was tested for binding affinity against Muscarinic acetylcholine receptor M4 in NG 108-15 cell homogenates; type: cell-based
T3 sequence (P08173 whole entry): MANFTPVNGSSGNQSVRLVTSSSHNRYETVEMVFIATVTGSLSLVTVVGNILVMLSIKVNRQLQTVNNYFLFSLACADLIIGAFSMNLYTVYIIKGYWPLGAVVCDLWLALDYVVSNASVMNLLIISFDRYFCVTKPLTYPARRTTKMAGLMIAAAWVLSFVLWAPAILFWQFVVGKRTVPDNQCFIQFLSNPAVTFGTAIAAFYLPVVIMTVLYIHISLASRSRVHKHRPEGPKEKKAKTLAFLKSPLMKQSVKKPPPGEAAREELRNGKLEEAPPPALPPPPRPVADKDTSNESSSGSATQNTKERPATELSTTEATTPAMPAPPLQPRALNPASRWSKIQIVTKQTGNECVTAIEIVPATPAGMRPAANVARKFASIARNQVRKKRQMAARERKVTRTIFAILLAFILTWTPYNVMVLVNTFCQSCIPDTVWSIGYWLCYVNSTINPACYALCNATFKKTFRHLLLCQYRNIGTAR

SMILES | Kb [1] [nM] | Ki [2] [nM] | Ki [3] [nM] | Kb [4] [nM] | Ki [5] [nM] | Ki [6] [nM]
C[N+]1(C)CCC2(CC1)OC(=O)C(c1ccccc1)(c1ccccc1)O2 | 1.23 | 2.75 | 5.01 | 0.933 | 2.95 | 
C[N+]1(C)C2CCC1CC1(C2)OC(=O)C(c2ccccc2)(c2ccccc2)O1 (stereo in doubt; 4b) |  |  | 0.794 | 20.9 | 50.1 | 4.37
C[N+]1(C)C2CCC1CC1(C2)OC(=O)C(c2ccccc2)(c2ccccc2)O1 (stereo in doubt; 4a) |  |  | 0.398 | 3.63 | 10.5 | 4.68
C[N+]1(C)CCC(OC(=O)C(c2ccccc2)c2ccccc2)CC1 [4-DAMP] |  |  | 0.589 |  |  | 
